Assay results taken from patent US9499550B2 (BRISTOL-MYERS SQUIBB COMPANY, priority 2012, dated 2016).

What was measured:
[1] = system: HCV genotype 1a (H77 strain) replicon in HUH-7 cells; assay: HCV replicon luciferase reporter assay, genotype 1a; format: cell-based; conditions: Hepatitis C virus, Huh-7, 72 h, HCV genotype 1a replicon luciferase, 3 days incubation, read-out: LE_1a (EC50, range)
Method in brief: (§1)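 Replicon inhibition for both genotypes was measured as Renilla luciferase signal (EnduRen, 7.5 μM final, 2 h) after 3-day, 37° C exposure of replicon-bearing HUH-7 cells in 4% FCS DMEM, 0.5% DMSO. The 1b construct carries S1179I; the 1a H77 construct carries P1496L and S2204I. Twenty-point, 3-fold dilutions were fitted four-parametrically for EC50, and CC50 was taken from multiplexed Cell Titer-Blue.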

[2] = system: HCV genotype 1b (Con1) replicon in HUH-7 cells; assay: HCV replicon luciferase reporter assay, genotype 1b; format: cell-based; conditions: Hepatitis C virus, Huh-7, 72 h, HCV genotype 1b replicon luciferase, 3 days incubation, read-out: LE_1b (EC50, range)
Method in brief: as §1

| Compound | EC50 [1] | EC50 [2] |
| --- | --- | --- |
| C[C@@H]1CC/C=C\[C@@H]2C[C@@]2(C(=O)NS(=O)(=O)C2CC2)NC(=O)[C@@H]2C[C@@H](Oc3nc4ccccc4c4ccccc34)CN2C(=O)[C@@H](NC(=O)OC(C)(C)C)[C@H](C)C1 [Compound 5183, tert-butyl ((2R,6S,7R,9R,13aS,14aR,16aS,Z)-14a-((cyclopropylsulfonyl)carbamoyl)-7,9-dimethyl-5,16-dioxo-2-(phenanthridin-6-yloxy)-1,2,3,5,6,7,8,9,10,11,13a,14,14a,15,16,16a-hexadecahydrocyclopropa[e]pyrrolo[1,2-a][1,4]diazacyclopentadecin-6-yl)carbamate] | < 5.46 nM | < 5.46 nM |
| C[C@@H]1CC/C=C\[C@@H]2C[C@@]2(C(=O)NS(=O)(=O)C2CC2)NC(=O)C2C[C@@H](Oc3nc4ccccc4c4ccccc34)CN2C(=O)[C@@H](NC(=O)OC(C)(C)C(F)(F)F)[C@H](C)C1 (stereo partly drawn) [Compound 5185, 1,1,1-trifluoro-2-methylpropan-2-yl((2R,6S,7R,9R,13aS,14aR,16aS,Z)-14a-((cyclopropylsulfonyl)carbamoyl)-7,9-dimethyl-5,16-dioxo-2-(phenanthridin-6-yloxy)-1,2,3,5,6,7,8,9,10,11,13a,14,14a,15,16,16a-hexadecahydrocyclopropa[e]pyrrolo[1,2-a][1,4]diazacyclopentadecin-6-yl)carbamate] | < 5.46 nM | < 5.46 nM |
| COc1ccc2c(O[C@@H]3C[C@H]4C(=O)N[C@]5(C(=O)NS(=O)(=O)C6CC6)C[C@H]5/C=C\CC[C@H](C)C[C@@H](C)[C@H](NC(=O)OC(C)(C)C)C(=O)N4C3)nc(-c3ccccc3)cc2c1 [Compound 5186, tert-butyl ((2R,6S,7R,9S,13aS,14aR,16aS,Z)-14a-((cyclopropylsulfonyl)carbamoyl)-2-((6-methoxy-3-phenylisoquinolin-1-yl)oxy)-7,9-dimethyl-5,16-dioxo-1,2,3,5,6,7,8,9,10,11,13a,14,14a,15,16,16a-hexadecahydrocyclopropa[e]pyrrolo[1,2-a][1,4]diazacyclopentadecin-6-yl)carbamate] | < 5.46 nM | < 5.46 nM |
| COc1ccc2c(O[C@@H]3C[C@H]4C(=O)N[C@]5(C(=O)NS(=O)(=O)C6CC6)C[C@H]5/C=C\CC[C@@H](C)C[C@@H](C)[C@H](NC(=O)O[C@@H]5C[C@@H]6C[C@@H]6C5)C(=O)N4C3)nc(-c3ccccc3)cc2c1 [Compound 5188, (1R,3r,5S)-bicyclo[3.1.0]hexan-3-yl((2R,6S,7R,9R,13aS,14aR,16aS,Z)-14a-((cyclopropylsulfonyl)carbamoyl)-2-((6-methoxy-3-phenylisoquinolin-1-yl)oxy)-7,9-dimethyl-5,16-dioxo-1,2,3,5,6,7,8,9,10,11,13a,14,14a,15,16,16a-hexadecahydrocyclopropa[e]pyrrolo[1,2-a][1,4]diazacyclopentadecin-6-yl)carbamate] | < 5.46 nM | < 5.46 nM |
| COc1ccc2c(O[C@@H]3C[C@H]4C(=O)N[C@]5(C(=O)NS(=O)(=O)C6CC6)C[C@H]5/C=C\CC[C@H](C)C[C@@H](C)[C@H](NC(=O)O[C@@H]5C[C@@H]6C[C@@H]6C5)C(=O)N4C3)nc(-c3ccccc3)cc2c1 [Compound 5189, (1R,3r,5S)-bicyclo[3.1.0]hexan-3-yl((2R,6S,7R,9S,13aS,14aR,16aS,Z)-14a-((cyclopropylsulfonyl)carbamoyl)-2-((6-methoxy-3-phenylisoquinolin-1-yl)oxy)-7,9-dimethyl-5,16-dioxo-1,2,3,5,6,7,8,9,10,11,13a,14,14a,15,16,16a-hexadecahydrocyclopropa[e]pyrrolo[1,2-a][1,4]diazacyclopentadecin-6-yl)carbamate] | < 5.46 nM | < 5.46 nM |
